This passage reports EC50 results from US8629102B2, “3-hydroxyisothiazole 1-oxide derivatives” (Mochida Pharmaceutical Co., Ltd., priority 2011, dated 2014).

By EC50 is commonly meant the concentration giving half of the maximal effect.

For this experiment, the target named is T1, GPR40 of human origin (Homo sapiens, UniProt O14842).
T1 construct: expressed in transfected cells
Description: Agonist action on GPR40 of human origin (intracellular Ca2+ change). Type of experiment: cell-based. Particulars: CHO cell strain stably expressing GPR40 of human origin; change in Ca2+ concentration, fluorescent calcium indicator. As to the method: Pharmacological Test Example 1: Agonist Action on GPR40 of Human Origin
A CHO cell strain stably expressing GPR40 of human origin was used to determine the agonist action of a subject compound. This cell strain was seeded in a clear bottom 96 well plate at 4×10^4 cells/100 pt/well. The cell strain iswas cultured in a CO2 incubator overnight using a Ham's F-12 medium containing a 10% fetal bovine serum, 100 U/mL penicillin, 0.1 mg/mL streptomycin, and 400 μg/mL Geneticin. Calcium 4 Assay Kit (Molecular Devices) was used as a fluorescent calcium indicator. One mL of 77 mg/mL probenecid (Invitrogen) was added to 100 mL of a calcium indicator solution to prepare a solution (loading solution) mixed with a 20 mM HEPES-containing Hanks' balanced salt solution (HBSS) in equal proportions. To the cells from which the culture solution is removed, 200 μl of the loading solution was added, and the cells were cultured in a CO2 incubator for 1 hour. The subject compound was diluted with a 20 mM HEPES-containing HBSS and was added to the cells by 50 μL, and the change in the Ca^2+ concentration was measured with an intracellular ion analyzer. The EC50 value of the subject compound was calculated using the dose-response curve of fluorescence intensity variation.

T1 sequence (O14842 whole entry): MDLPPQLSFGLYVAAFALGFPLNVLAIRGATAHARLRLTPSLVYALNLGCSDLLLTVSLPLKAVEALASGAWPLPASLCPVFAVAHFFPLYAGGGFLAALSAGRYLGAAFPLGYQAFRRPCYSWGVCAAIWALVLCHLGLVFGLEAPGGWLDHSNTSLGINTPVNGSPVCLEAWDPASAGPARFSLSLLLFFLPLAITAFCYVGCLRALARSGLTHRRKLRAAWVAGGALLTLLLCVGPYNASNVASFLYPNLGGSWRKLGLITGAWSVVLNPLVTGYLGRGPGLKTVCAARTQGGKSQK

`Cc1ccc(-c2cccc3c2CC[C@H]3Oc2ccc(-c3cc(O)n[s+]3[O-])cc2)cc1` (stereo partly drawn) [Example 5, 3-hydroxy-5-(4-(((1R)-4-(p-tolyl)-2,3-dihydro-1H-inden-1-yl)oxy)phenyl)isothiazole 1-oxide]: the EC50 was < 300 nM.
As to `COc1cc(Cl)cc(-c2cccc3c2CC[C@H]3Oc2ccc(-c3cc(O)n[s+]3[O-])cc2)c1` (stereo partly drawn) [Example 14, 5-(4-(((R)-4-(3-chloro-5-methoxyphenyl)-2,3-dihydro-1H-inden-1-yl)oxy)phenyl)-3-hydroxyisothiazole 1-oxide], the EC50 is < 300 nM.
Take `[O-][s+]1nc(O)cc1-c1ccc(O[C@@H]2CCc3c(-c4cc(C(F)(F)F)ccc4F)cccc32)cc1` (stereo partly drawn) [Example 67, 5-(4-(((R)-4-(2-fluoro-5-trifluoromethylphenyl)-2,3-dihydro-1H-inden-1-yl)oxy)phenyl)-3-hydroxyisothiazole 1-oxide]: the EC50 was < 300 nM.
Turning to `COc1cccc(-c2cccc3c2CC[C@H]3Oc2ccc(-c3cc(O)n[s+]3[O-])cc2)c1` (stereo partly drawn) [Example 30, 5-(4-(((R)-4-(3-methoxyphenyl)-2,3-dihydro-1H-inden-1-yl)oxy)phenyl)-3-hydroxyisothiazole 1-oxide], the EC50 was < 300 nM.
Take `CS(=O)(=O)c1ccc(Oc2cccc3c2CC[C@H]3Oc2ccc(-c3cc(O)n[s+]3[O-])cc2)cc1` (stereo partly drawn) [Example 107, 3-hydroxy-5-(4-(((R)-4-(4-(methylsulfonyl)phenoxy)-2,3-dihydro-1H-inden-1-yl)oxy)phenyl)isothiazole 1-oxide]: the EC50 is < 300 nM.
For `Cc1cc(OCCCS(C)(=O)=O)cc(C)c1-c1cccc2c1OCC2Oc1ccc(-c2cc(O)n[s+]2[O-])cc1` (single isomer, unassigned) [Example 151, 5-(4-((7-(2,6-dimethyl-4-(3-(methylsulfonyl)propoxy)phenyl)-2,3-dihydrobenzofuran-3-yl)oxy)phenyl)-3-hydroxyisothiazole 1-oxide], the concentration for a half-maximal effect (EC50) is < 300 nM.
Consider `[O-][s+]1nc(O)cc1-c1ccc(O[C@@H]2CCc3c(Oc4ccc(C(F)(F)F)cc4)cccc32)cc1` (stereo partly drawn) [Example 87, 3-hydroxy-5-(4-(((R)-4-(4-(trifluoromethyl)phenoxy)-2,3-dihydro-1H-inden-1-yl)oxy)phenyl)isothiazole 1-oxide], for which the EC50 is < 300 nM.
Consider `COc1ncc(Oc2cccc3c2CC[C@H]3Oc2ccc(-c3cc(O)n[s+]3[O-])cc2)cn1` (stereo partly drawn) [Example 110, 3-hydroxy-5-(4-(((R)-4-((2-methoxypyrimidin-5-yl)oxy)-2,3-dihydro-1H-inden-1-yl)oxy)phenyl)isothiazole 1-oxide], for which the EC50 is < 300 nM.
With `COc1cccnc1Oc1cccc2c1CC[C@H]2Oc1ccc(-c2cc(O)n[s+]2[O-])cc1` (stereo partly drawn) [Example 132, 3-hydroxy-5-(4-(((R)-4-((3-methoxypyridin-2-yl)oxy)-2,3-dihydro-1H-inden-1-yl)oxy)phenyl)isothiazole 1-oxide], the EC50 was 300 to 3000 nM.
On to `COc1cccc(-c2cccc3c2CC[C@H]3Oc2ccc(-c3cc(O)n[s+]3[O-])cc2)c1F` (stereo partly drawn) [Example 59, 5-(4-(((R)-4-(2-fluoro-3-methoxyphenyl)-2,3-dihydro-1H-inden-1-yl)oxy)phenyl)-3-hydroxyisothiazole 1-oxide], for which the EC50 was < 300 nM.
`[O-][s+]1nc(O)cc1-c1ccc(O[C@@H]2CCc3c(Br)cccc32)cc1` (single isomer, unassigned) [Example 3]: the EC50 was < 300 nM.
Take `Cc1ccc(Cl)c(-c2cccc3c2CC[C@H]3Oc2ccc(-c3cc(O)n[s+]3[O-])cc2)c1` (single isomer, unassigned) [Example 15]: the EC50 was < 300 nM.
In the case of `CC(C)(O)CCOc1ccc(Oc2cccc3c2CC[C@H]3Oc2ccc(-c3cc(O)n[s+]3[O-])cc2)cc1` (stereo partly drawn) [Example 113, 3-hydroxy-5-(4-(((R)-4-(4-(3-hydroxy-3-methylbutoxy)phenoxy)-2,3-dihydro-1H-inden-1-yl)oxy)phenyl)isothiazole 1-oxide], the EC50 was < 300 nM.
Regarding `[O-][s+]1nc(O)cc1-c1ccc(O[C@@H]2CCc3c(Oc4ccccc4)cccc32)cc1` (stereo partly drawn) [Example 90, 3-hydroxy-5-(4-(((R)-4-phenoxy-2,3-dihydro-1H-inden-1-yl)oxy)phenyl)isothiazole 1-oxide], the EC50 was < 300 nM.
Consider `[O-][s+]1nc(O)cc1-c1ccc(OCC2=CC3(CCCC3)CCC2)cc1` (stereo not drawn) [Example 122, 3-hydroxy-5-(4-(spiro[4.5]dec-6-en-7-ylmethoxy)phenyl)isothiazole 1-oxide], for which the EC50 is < 300 nM.
On to `COc1cncc(Oc2cccc3c2CC[C@H]3Oc2ccc(-c3cc(O)n[s+]3[O-])cc2)c1` (stereo partly drawn) [Example 127, 3-hydroxy-5-(4-(((R)-4-((3-methoxypyridin-5-yl)oxy)-2,3-dihydro-1H-inden-1-yl)oxy)phenyl)isothiazole 1-oxide], for which the EC50 is < 300 nM.
`COc1ccc(-c2cccc3c2CC[C@H]3Oc2ccc(-c3cc(O)n[s+]3[O-])cc2)c(Cl)c1` (stereo partly drawn) [Example 48, 5-(4-(((R)-4-(2-chloro-4-methoxyphenyl)-2,3-dihydro-1H-inden-1-yl)oxy)phenyl)-3-hydroxyisothiazole 1-oxide]: the EC50 is < 300 nM.
Turning to `[O-][s+]1nc(O)cc1-c1ccc(O[C@@H]2CCc3c(-c4ccccc4C(F)(F)F)cccc32)cc1` (stereo partly drawn) [Example 64, 5-(4-(((R)-4-(2-trifluoromethylphenyl)-2,3-dihydro-1H-inden-1-yl)oxy)phenyl)-3-hydroxyisothiazole 1-oxide], the EC50 is < 300 nM.
With `CC(C)(O)CCOc1ccc(Oc2cccc3c2CC[C@H]3Oc2ccc(-c3cc(O)n[s+]3[O-])cc2)cn1` (stereo partly drawn) [Example 97, 3-hydroxy-5-(4-(((R)-4-((6-(3-hydroxy-3-methylbutoxy)pyridin-3-yl)oxy)-2,3-dihydro-1H-inden-1-yl)oxy)phenyl)isothiazole 1-oxide], the EC50 was < 300 nM.
As to `Cc1nc(OCCC(C)(C)O)ccc1Oc1cccc2c1OCC2Oc1ccc(-c2cc(O)n[s+]2[O-])cc1` (single isomer, unassigned) [Example 153-a, 3-hydroxy-5-(4-((7-((6-(3-hydroxy-3-methylbutoxy)-2-methylpyridin-3-yl)oxy)-2,3-dihydrobenzofuran-3-yl)oxy)phenyl)isothiazole 1-oxide], the EC50 is < 300 nM.
For `CCOc1ccc(-c2cccc3c2CC[C@H]3Oc2ccc(-c3cc(O)n[s+]3[O-])cc2)cc1Cl` (stereo partly drawn) [Example 60, 5-(4-(((R)-4-(3-chloro-4-ethoxyphenyl)-2,3-dihydro-1H-inden-1-yl)oxy)phenyl)-3-hydroxyisothiazole 1-oxide], the EC50 was < 300 nM.
Take `[O-][s+]1nc(O)cc1-c1ccc(O[C@@H]2CCc3c(Oc4ccsc4)cccc32)cc1` (stereo partly drawn) [Example 111, 3-hydroxy-5-(4-(((R)-4-(thiophen-3-yloxy)-2,3-dihydro-1H-inden-1-yl)oxy)phenyl)isothiazole 1-oxide]: the EC50 was < 300 nM.
For the molecule `COc1ccc(-c2cccc3c2CC[C@H]3Oc2ccc(-c3cc(O)n[s+]3[O-])cc2)cc1` (stereo partly drawn) [Example 23, 5-(4-(((R)-4-(4-methoxyphenyl)-2,3-dihydro-1H-inden-1-yl)oxy)phenyl)-3-hydroxyisothiazole 1-oxide], the concentration for a half-maximal effect (EC50) was < 300 nM.
In the case of `COc1ccc(Oc2cccc3c2CC[C@H]3Oc2ccc(-c3cc(O)n[s+]3[O-])cc2)c(C)n1` (stereo partly drawn) [Example 106, 3-hydroxy-5-(4-(((R)-4-((6-methoxy-2-methylpyridin-3-yl)oxy)-2,3-dihydro-1H-inden-1-yl)oxy)phenyl)isothiazole 1-oxide], the EC50 was < 300 nM.
Turning to `[O-][s+]1nc(O)cc1-c1ccc(OCCc2ccc(Oc3ccccc3)cc2)cc1` (stereo not drawn) [Example 162, 3-hydroxy-5-(4-(4-phenoxyphenethoxy)phenyl)isothiazole 1-oxide], the half-maximal effective concentration (EC50) is < 300 nM.
With `COc1ccc(F)c(-c2cccc3c2CC[C@H]3Oc2ccc(-c3cc(O)n[s+]3[O-])cc2)c1` (stereo partly drawn) [Example 53, 5-(4-(((R)-4-(2-fluoro-5-methoxyphenyl)-2,3-dihydro-1H-inden-1-yl)oxy)phenyl)-3-hydroxyisothiazole 1-oxide] the figure was < 300 nM.
For the molecule `Cc1ccccc1Oc1cccc2c1CC[C@H]2Oc1ccc(-c2cc(O)n[s+]2[O-])cc1` (stereo partly drawn) [Example 95, 3-hydroxy-5-(4-(((R)-4-(o-tolyloxy)-2,3-dihydro-1H-inden-1-yl)oxy)phenyl)isothiazole 1-oxide], the EC50 is < 300 nM.
Take `CCCc1ccc(-c2cccc3c2CC[C@H]3Oc2ccc(-c3cc(O)n[s+]3[O-])cc2)cc1` (stereo partly drawn) [Example 22, 5-(4-(((R)-4-(4-n-propylphenyl)-2,3-dihydro-1H-inden-1-yl)oxy)phenyl)-3-hydroxyisothiazole 1-oxide]: the EC50 was < 300 nM.
With `[O-][s+]1nc(O)cc1-c1ccc(O[C@@H]2CCc3c(-c4ccc(F)cc4)cccc32)cc1` (stereo partly drawn) [Example 21, 5-(4-(((R)-4-(4-fluorophenyl)-2,3-dihydro-1H-inden-1-yl)oxy)phenyl)-3-hydroxyisothiazole 1-oxide], the EC50 is < 300 nM.
For `Cc1nc(OCCC(C)(C)O)ccc1Oc1cccc2c1CC[C@H]2Oc1ccc(-c2cc(O)n[s+]2[O-])cc1` (stereo partly drawn) [Example 101, 3-hydroxy-5-(4-(((R)-4-((6-(3-hydroxy-3-methylbutoxy)-2-methylpyridin-3-yl)oxy)-2,3-dihydro-1H-inden-1-yl)oxy)phenyl)isothiazole 1-oxide], the EC50 was < 300 nM.
